From paper PMC11881035, “^68Ga-Labeled Glycopeptides as Effective Tools for Liver Function Imaging” (Molecular Pharmaceutics, 2025) come the findings set out here.

The subject of the data set is healthy male C57BL6 mouse. The experiment in a line: PET/MR imaging in C57BL6 mice, time activity curves. The data set is classed as in vivo. The protocol: The ^68Ge/^68Ga generator, devices for analytical HPLC, semipreparative HPLC, mass spectrometry, radio-thin layer chromatography, gamma counter and animal models for biodistribution and imaging studies including the image reconstruction procedures were the same as described before.[22] Stability assays in PBS and human blood serum, protein binding as well as determination of log D values followed established protocols.[25] Binding affinities (IC50) of selected ligands were determined in an isolated receptor-based assay according to a previously published procedure with minor modifications.[22] Dilutions of nonradioactive complexes were made with PBS + 0.1% BSA (10^–5–10^–12 M). Preparation of [^125I]I-Asialoorosomucoid which serves as the radioactive standard ligand has been published recently.[21]
Animal experiments were performed in accordance with the Austrian animal experiments law (BGBl. I Nr. 114/2012) and the institution’s animal welfare standards as approved by the Austrian Federal Ministry of Education, Science and Research (BMBWF, 2022–0.311.708). Imaging experiments were conducted at Werner Siemens Imaging Center (Tübingen, Germany) according to the German animal welfare act as approved by the local authorities (R5/19 G, R09/21 G). […]

Where a SMILES comes first, the peptide text is derived from it. The star is where a group is joined. X1 = O=C(CCCCc1cn([C@@H]2O[C@H](CO)[C@H](O)[C@H](O)[C@H]2O)nn1)*; NODAGA = O=C(O)CN1CCN(CC(=O)O)CCN(C(CCC(=O)*)C(=O)O)CC1; GABA = NCCCC(=O)O Some results are limits rather than exact numbers.

For the molecule `NC(=O)CNC(=O)CNC(=O)[C@H](CCCCNC(=O)CCCCc1cn([C@@H]2O[C@H](CO)[C@H](O)[C@H](O)[C@H]2O)nn1)NC(=O)CNC(=O)CNC(=O)[C@H](CCCCNC(=O)CCCCc1cn([C@@H]2O[C@H](CO)[C@H](O)[C@H](O)[C@H]2O)nn1)NC(=O)CNC(=O)CNC(=O)[C@H](CCCCNC(=O)CCCCc1cn([C@@H]2O[C@H](CO)[C@H](O)[C@H](O)[C@H]2O)nn1)NC(=O)CNC(=O)CNC(=O)[C@H](CCCCNC(=O)CCCCc1cn([C@@H]2O[C@H](CO)[C@H](O)[C@H](O)[C@H]2O)nn1)NC(=O)CNC(=O)CNC(=O)[C@H](CCCCNC(=O)CCCCc1cn([C@@H]2O[C@H](CO)[C@H](O)[C@H](O)[C@H]2O)nn1)NC(=O)CNC(=O)CNC(=O)[C@H](CCCCNC(=O)CCCCc1cn([C@@H]2O[C@H](CO)[C@H](O)[C@H](O)[C@H]2O)nn1)NC(=O)CNC(=O)CNC(=O)[C@H](CCCCNC(=O)CCCCc1cn([C@@H]2O[C@H](CO)[C@H](O)[C@H](O)[C@H]2O)nn1)NC(=O)CNC(=O)CNC(=O)[C@H](CCCCNC(=O)CCCCc1cn([C@@H]2O[C@H](CO)[C@H](O)[C@H](O)[C@H]2O)nn1)NC(=O)CNC(=O)CNC(=O)[C@H](CCCCNC(=O)CCCCc1cn([C@@H]2O[C@H](CO)[C@H](O)[C@H](O)[C@H]2O)nn1)NC(=O)CCCNC(=O)CCC(C(=O)O)N1CCN(CC(=O)O)CCN(CC(=O)O)CC1` (some centres unmarked) [[^68Ga]Ga-NODAGA-NonaLysan, metal not drawn] ({NODAGA-GABA}-K(X1)GGK(X1)GGK(X1)GGK(X1)GGK(X1)GGK(X1)GGK(X1)GGK(X1)GGK(X1)GG-NH2), the “time of fast liver accumulation” value (PET/MR, C57BL6 mouse, 1 MBq (100 pmol)) is given as not above 2 min. Besides, where the note is “followed by stable retention”, the “time of rapid tracer accumulation in liver (time-activity curves)” value is on record as not above 5 min.
